The compounds below were run on mESC Bmi1-luciferase reporter, firefly/renilla ratio, 24 h (assay: Bmi1-luciferase reporter activators in mESC, dose response, esBAF inhibitor project, mouse embryonic stem cells, cherry-pick (AID 651717);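 further: luciferase knocked into Bmi1 locus with EF-1a renilla as cell number control; rising ratio signals esBAF inhibition which derepresses Bmi1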).

| Structure (SMILES) | AC40 [µM] |
| --- | --- |
| Cc1ccc(C(=O)CNc2ccccc2)cc1 | 16.6 |
| Cc1ccc(NC(=O)c2ccc3c(=O)n4c(nc3c2)CCC4)cc1F | 0.945 |
| O=C(NCCO)c1cccc(-c2cnc3c(Nc4cccc(OC(F)(F)C(F)F)c4)nccn23)c1 | 4.46 |
| COC(=O)c1ccc(CN2C(=O)NC3(CCCCC3)C2=O)cc1 | 7.87 |
| CN(Cc1ccccn1)C(=O)c1cc(COc2ccc(F)c(F)c2)on1 | 3.82 |
| COc1ccc(-c2ccc(OC)cc2)cc1 | 4.64 |
| Oc1ccc(-c2nnc(SCc3ccccc3)o2)cc1 | 7.97 |
| OC(c1ccc(F)cc1)c1ncc(-c2ccc3ccccc3c2)[nH]1 (stereo not drawn) | 10.9 |
| O=C(CC(=O)c1ccccc1)Nc1ccccc1 | 3.94 |
| Clc1ccc(C=NN2CCCCCC2)cc1 | 0.983 |
| CCN(C(=O)c1cc2c(=O)n3ccccc3nc2s1)C1CCCCC1 | 14 |
| O=C(c1noc2c1CCCC2)N1CCc2ccccc2C1 | 2.99 |
| COc1ccc(OCc2cc(C(=O)N(C)C(C)c3ccon3)no2)c(Cl)c1 (stereo not drawn) | 23.4 |
| Cc1cccc(Oc2coc3cc(O)ccc3c2=O)c1 | 15.7 |
| CNC(=O)c1ccc(-c2cc3onc(-c4ccccc4)c3c(=O)n2C)cc1 | 1.16 |
| COc1ccc(C(=O)CNc2cccc(F)c2)cc1 | 16.4 |
| CCc1cc(CNC(=O)c2cc(COc3ccc(C)nc3)on2)on1 | 6.87 |
| COc1ccc2nc3ccccc3[n+]([O-])c2c1 | 2.1 |
| CN(C)S(=O)(=O)c1ccc(C(=O)Nc2ccc3c(c2)CCC3)cc1 | 4.91 |
| Cc1cc(N2CCOCC2)nc2ccc(NC(=O)CCC(=O)N3CCN(c4ccccc4F)CC3)cc12 | 4.59 |
| CC1CCCN(C(=O)c2cc3c(=O)n4ccccc4nc3s2)C1 (stereo not drawn) | 14.1 |
| COc1cccc(NC(=O)c2ccnc(N3CCC(C(=O)NCc4ccccc4OC)CC3)c2)c1 | 8.36 |
| O=C(NCc1ccccc1)c1cc(-c2cccc(O)c2)on1 | 12.6 |
| CCCCNC(=O)CSc1nc2ccc(N3CCOCC3)cc2c(=O)n1Cc1ccc(OC)cc1 | 11 |
| Oc1ccc(-c2cccc(-c3ccc(O)cc3)c2)cc1 | 6.78 |

| Structure (SMILES) | AC40 [µM] |
| --- | --- |
| Cc1cc(OCc2cc(C(=O)N(C)C(C)c3ccccn3)no2)cc(C)c1Cl (stereo not drawn) | 14.7 |
| COc1ccc(C2Nc3ccccc3C(=O)N2c2ccc(C)cc2)cc1Cn1nc(C)c([N+](=O)[O-])c1C (stereo not drawn) | 12.6 |
| COc1cccc(OCc2cc(C(=O)N(C)C3CCCCC3)no2)c1 | 4.53 |
| O=C1N=C(N2CCCCC2)S/C1=C\c1ccccc1F | 2.67 |
| Cc1ccc(SCCN2CCC(C)CCC2=O)cc1 (stereo not drawn) | 2.74 |
| COc1cccc(-c2noc(C3CCCN(C(=O)CC(C)(C)C)C3)n2)c1 (stereo not drawn) | 6.48 |
| C=CCNc1nc(-c2ccc(O)c(C(N)=O)c2)cs1 | 6.2 |
| C/C(=N\O)c1ccc2c3ccccc3n(C)c2c1 | 3.32 |
| CS(=O)(=O)c1cccc(-c2csc(N3CCC(C(N)=O)CC3)n2)c1 | < 0.26 |
| Cc1ccc(NC(=O)O/N=C/c2ccc(N(C)C)cc2)cc1 | 16.6 |
| O=C(c1ccccc1)c1ccc2ccccc2c1 | 3.04 |
| O=C(CC1CC2CCC1C2)NC1CCCCCCC1 (stereo not drawn) | 9.68 |
| CN(C)c1ccccc1-c1csc(N2CCC(C(N)=O)CC2)n1 | < 0.26 |
| Cc1ccc(NC(=O)Nc2cccc(C)n2)c(C)c1 | 6.01 |
| CCN(CC(=O)NCc1ccc(F)cc1)C(=O)c1ccc(COc2ccccc2)cc1 | 25.2 |
| COc1ccc(NC(=O)c2cc(-c3cccs3)on2)cc1 | 3.06 |
| CCn1cnc2cc(NCc3ccc(OC)cc3)ccc21 | 0.992 |
| Cc1ccc(CNc2cccnc2)cc1 | 25.7 |
| NC(=O)C1CCN(c2nc(-c3cccc(N)c3)cs2)CC1 | 1.35 |
| CCC(C)NC(=O)c1cc(CC(C)C)on1 (stereo not drawn) | 6.83 |
| CCc1ccc2cc3c(cc2n1)C(=O)c1ccccc1-3 | 2.32 |
| CCSc1nnc(NC(=O)c2ccc3nc[nH]c3c2)s1 | 12.7 |
| CN(c1nc(-c2ccccc2)cs1)C1CCS(=O)(=O)C1 (stereo not drawn) | 20.3 |
| O=C(Cc1ccccc1)Nc1ccc2c(c1)OC1(CCCC1)O2 | 3.73 |
| CCN(CC)C(=O)OCc1c(-c2ccccc2)ncc2ccccc12 | 2.25 |

| Structure (SMILES) | AC40 [µM] |
| --- | --- |
| Clc1ccc(-c2cn3cccnc3n2)cc1Cl | 3.56 |
| CC(C)NC(=O)CCc1nnc(Cc2cccc(C(F)(F)F)c2)o1 | 15.3 |
| COc1ccc(C(=O)CCc2ccccc2O)c(OC)c1 | 3.58 |
| CN(C)c1ccc(CSc2ccccc2)cc1 | 2.77 |
| COC(=O)c1ccc2nc(-c3cccc(Cl)c3)c(Cc3ccsc3)n2c1 | 7.98 |
| C=CCNc1nc(NCc2ccc(NC(C)=O)cc2)c2sc(-c3ccccc3)cc2n1 | 0.635 |
| COC(=O)Cc1ccc(OCc2ccc(Cl)nc2)cc1 | 6.74 |
| CC(C)Cc1ccc(-c2ccc3nccn3c2)cc1 | 1.94 |
| CC1CCN(c2oc(-c3cccc4ccccc34)nc2C#N)CC1 | 2.52 |
| O=C(Nc1ccccc1Cl)c1cc(=O)c2ccccc2o1 | 0.468 |
| CCCN1CCN(CCCNC(=O)c2ccc3nc(N4CCCCC4)sc3c2)CC1 | 13.3 |
| Clc1ccc(N/N=C/c2cccnc2)cc1 | 2.59 |
| CC(=O)N(/N=C1\Sc2ccccc2C1=O)c1ccccc1 | < 0.26 |
| Fc1ccc2cc(-c3ccsc3)ncc2c1 | 3.16 |
| C=CCn1c(-c2ccc(N)cc2)nc2ccccc21 | 0.806 |
| C1=NN(c2ccccc2)C=NN1c1ccccc1 | 1.17 |
| O=C(Cc1c(O)c2ccccc2oc1=O)c1ccc(F)cc1 | 2 |
| COc1cc2c(cc1NC(=O)C(C)OC(=O)/C=C/c1ccc(OC(F)F)cc1)oc1ccccc12 (stereo not drawn) | 3.91 |
| c1ccc(Cn2c(-c3cncs3)nc3ccccc32)cc1 | 11.8 |
| COc1ccc(NC(=O)c2cc(-c3ccccc3Cl)on2)cc1 | 11.8 |
| C=CCNc1nc2cc(-c3ccccc3OC)sc2c(=O)n1C | 5.18 |
| Nc1nc(-c2cccc(F)c2)cs1 | 6.13 |
| CC(=O)Nc1ccc2nc(SCC(=O)Nc3ccc(N4CCOCC4)c(Cl)c3)sc2c1 | 3.57 |
| COc1cc(CNc2ccc(S(N)(=O)=O)cc2)ccc1OCc1ccccc1F | 1.87 |
| O=C(Nc1ccccc1)c1cc(C2CCCCN2S(=O)(=O)c2cccs2)on1 (stereo not drawn) | 9.04 |

| Structure (SMILES) | AC40 [µM] |
| --- | --- |
| CC(=O)Nc1cc2c3c(cccc3c1)-c1ccccc1-2 | 5.23 |
| CSc1nnc(NC(=O)C23CC4CC(CC(C4)C2)C3)s1 | 6.47 |
| O=C(CCc1nnc(CCc2c[nH]c3ccccc23)o1)NC1CCC1 | 4.41 |
| Cc1cccc(NC(=O)c2c(O)c3ccccc3[nH]c2=O)c1 | 0.371 |
| COc1ccc(Nc2nc(C)c(C(C)=O)s2)cc1 | 4.13 |
| O=C(N/N=C/c1ccc(Cl)cc1)Nc1ccccc1 | 5.34 |
| Nc1cc2c(cc1Cl)-c1ccccc1C2 | 6.53 |
| Cc1ccc(C(=O)Nc2ccc(Br)c(C(F)(F)F)c2)cc1 | 1.73 |
| CO[C@H]1CN(C)C(=O)c2ccc(NC(=O)Nc3ccc4c(c3)OCO4)cc2OC[C@@H](C)NC[C@@H]1C | 2.76 |
| Cc1ccc(NC(=O)C2CCCN(C(=O)c3ccc(Cl)cc3)C2)cc1C (stereo not drawn) | 6.09 |
| Cn1c(/N=C(\N)c2ccccc2)nc2ccccc21 | 0.587 |
| Cc1cc2oc(=O)cc(CN3CCC(C)CC3)c2c(C)c1Cl | 4.55 |
| Cc1ccc(CNC(=O)c2ccc(Cn3cc(-c4ccc(C)cc4)nc3-c3ccncc3)cc2)cc1 | 1.77 |
| O=c1[nH]cnc2nc(-c3ccc(N(CCCl)CCCl)cc3)[nH]c12 | 0.965 |
| Cc1cc(Cl)c(O)c(-n2nc3ccccc3n2)c1 | 5.74 |
| c1ccc(-c2cnnc(N3CCCCC3)n2)cc1 | 1.99 |
| CC(=O)c1ccc(OCc2cc(C(=O)N(C)Cc3cc(C)no3)no2)cc1 | 7.14 |
| CC1CCc2sc(C(=O)NC3CCCCC3)cc2C1 (stereo not drawn) | 1.08 |
| c1ccc(Nc2ccc3ccccc3c2)cc1 | 3.83 |
| Cc1ccc(NC(=O)NC2CCCCCCC2)cc1C | 4.22 |
| O=C(c1c(F)cccc1F)N1CCCC(c2nc(-c3cccs3)no2)C1 (stereo not drawn) | 11.8 |
| COc1ccc(Cl)c(-c2cc(C(=O)Nc3ccc(F)cc3)[nH]n2)c1 | 2.11 |
| Cc1cc(C)c2c(N)c(C(=O)Nc3ccccc3Br)sc2n1 | 2.16 |
| COc1ccc(CNc2nc(NCc3ccc(OC)cc3)n(C(=O)c3ccccc3[N+](=O)[O-])n2)cc1 | 18.8 |
| Cc1ccc(C2/C(=C(/O)c3cnn(-c4ccccc4)c3C)C(=O)C(=O)N2CCN2CCOCC2)o1 (stereo not drawn) | 8.69 |

| Structure (SMILES) | AC40 [µM] |
| --- | --- |
| COc1ccc(-c2cn3c(C)c(C(=O)NC(C)(C)C)sc3n2)cc1 | 1.02 |
| C(=NOCc1ccccc1)c1cccnc1 | 4.28 |
| COc1ccc(C(=O)Nc2ccc3nc(C)c(C)nc3c2)cc1 | 8.3 |
| COc1cc2ccccc2cc1C(=O)NC1CCC(C)CC1 (stereo not drawn) | 8.67 |
| COc1ccc(-n2nc(C(=O)NCC(=O)N3CCCC3)c3ccccc3c2=O)cc1Cl | 20.9 |
| CO[C@H]1CN(C)C(=O)c2cc(NC(=O)Nc3ccc4c(c3)OCO4)ccc2OC[C@H](C)NC[C@@H]1C | 13.2 |
| Cc1ccc(OCn2c(=O)sc3ccccc32)cc1 | 6.12 |
| CSc1ccc(/C=N/NC(=O)c2ccccc2Cl)cc1 | 6.47 |
| COc1ccc(OCc2cc(C(=O)NC(C)c3nc(C)cs3)no2)c(Cl)c1 (stereo not drawn) | 10.4 |
| COc1ccccc1-c1nc(SCc2ccccn2)n[nH]1 | 8.67 |
| CC(=O)O/N=C(\N)c1ccc(-c2csnn2)cc1 | 29.5 |
| COC(=O)c1ccc2[nH]c(C(C)(C)O)c(C)c2c1 | 1.37 |
| O=C(O)c1cncc(C#CCC2CCCCC2)c1 | 15.6 |
| O=C(Nc1cccc(-c2nc3ccccc3s2)c1)c1cc(-n2cnnc2)ccc1Cl | 7.62 |
| Cc1noc(C)c1C(=O)Nc1nc(-c2cc(F)ccc2F)cs1 | 6.63 |
| CC(c1ccccc1)c1nnc(NC(=O)Nc2ccccc2F)s1 (stereo not drawn) | 6.51 |
| CO[C@@H]1CN(C)C(=O)c2ccc(NC(=O)Nc3ccc4c(c3)OCO4)cc2OC[C@H](C)NC[C@@H]1C | 5 |
| CO[C@@H]1CN(C)C(=O)c2cc(NC(=O)Nc3ccc4c(c3)OCO4)ccc2OC[C@H](C)NC[C@@H]1C | 6.97 |
| COc1cc(/C=C2/C(=N)N3N=C(CC(=O)N4CCOCC4)SC3=NC2=O)ccc1OCc1ccc(F)cc1 | 3.4 |
| COc1ccc(Cc2c(-c3ccccc3)nc3ccc(Br)cn23)c(C)c1 | 8.9 |
| c1ccc(-c2nc3c(ccc4ccccc43)[nH]2)nc1 | 0.96 |
| N#Cc1c(/N=C/c2cccs2)sc2c1CCC2 | 0.897 |
| O=c1c2ccccc2sc2ccccc12 | 2.41 |
